From the CheMixHub ionic liquid set

Assay: xn = mol fraction of the nth substance listed

NC(=O)CC[C@H](N)C(=O)O + CCCCCCCCCCCC[N+](C)(C)C.[Br-] + O
viscosity [mPa·s], 101 kPa
Details | 293.15 K | 298.15 K | 303.15 K | 308.15 K | 313.15 K
x1 = 0.0001801, x2 = 0.0001083 | 1.02 | 0.908 | 0.822 | 0.738 | 0.667
x1 = 0.0001801, x2 = 0.0001624 | 1.024 | 0.911 | 0.824 | 0.74 | 0.67
x1 = 0.0001801, x2 = 0.0002165 | 1.028 | 0.913 | 0.825 | 0.742 | 0.672
x1 = 0.0001801, x2 = 0.0002706 | 1.036 | 0.914 | 0.827 | 0.744 | 0.674
x1 = 0.0001801, x2 = 0.0003247 | 1.045 | 0.917 | 0.828 | 0.745 | 0.676
x1 = 0.0001801, x2 = 0.0003788 | 1.051 | 0.921 | 0.832 | 0.747 | 0.677
x1 = 0.0001801, x2 = 0.0004328 | 1.057 | 0.926 | 0.835 | 0.749 | 0.68
x1 = 0.0001801, x2 = 0.0004869 | 1.062 | 0.932 | 0.837 | 0.754 | 0.683
x1 = 0.0001801, x2 = 0.000541 | 1.067 | 0.937 | 0.841 | 0.757 | 0.687
x1 = 0.0001802, x2 = 5.413e-05 | 1.018 | 0.905 | 0.819 | 0.735 | 0.666
x1 = 0.0008997, x2 = 0.0005438 | 1.057 | 0.91 | 0.821 | 0.751 | 0.678
x1 = 0.0008998, x2 = 0.0003807 | 1.045 | 0.898 | 0.81 | 0.739 | 0.668
x1 = 0.0008998, x2 = 0.0004351 | 1.051 | 0.902 | 0.814 | 0.743 | 0.67
x1 = 0.0008998, x2 = 0.0004894 | 1.053 | 0.906 | 0.818 | 0.747 | 0.674
x1 = 0.0008999, x2 = 0.000272 | 1.041 | 0.893 | 0.805 | 0.734 | 0.664
x1 = 0.0008999, x2 = 0.0003263 | 1.043 | 0.896 | 0.807 | 0.736 | 0.666
x1 = 0.0009, x2 = 0.0001632 | 1.036 | 0.889 | 0.801 | 0.729 | 0.66
x1 = 0.0009, x2 = 0.0002176 | 1.039 | 0.891 | 0.803 | 0.732 | 0.662
x1 = 0.0009001, x2 = 5.44e-05 | 1.033 | 0.884 | 0.797 | 0.725 | 0.655
x1 = 0.0009001, x2 = 0.0001088 | 1.035 | 0.886 | 0.799 | 0.727 | 0.657
x1 = 0.001798, x2 = 0.0001642 | 1.015 | 0.873 | 0.788 | 0.725 | 0.642
x1 = 0.001798, x2 = 0.000219 | 1.02 | 0.875 | 0.79 | 0.726 | 0.643
x1 = 0.001798, x2 = 0.0002737 | 1.025 | 0.878 | 0.792 | 0.728 | 0.645
x1 = 0.001798, x2 = 0.0003284 | 1.031 | 0.88 | 0.793 | 0.73 | 0.647
x1 = 0.001798, x2 = 0.0003831 | 1.034 | 0.885 | 0.797 | 0.732 | 0.648
x1 = 0.001798, x2 = 0.0004378 | 1.037 | 0.888 | 0.803 | 0.733 | 0.65
x1 = 0.001798, x2 = 0.0004925 | 1.039 | 0.892 | 0.807 | 0.736 | 0.653
x1 = 0.001798, x2 = 0.0005472 | 1.042 | 0.896 | 0.813 | 0.738 | 0.655
x1 = 0.001799, x2 = 5.475e-05 | 1.004 | 0.867 | 0.784 | 0.721 | 0.634
x1 = 0.001799, x2 = 0.0001095 | 1.01 | 0.87 | 0.785 | 0.722 | 0.639

[Cl-].[Na+] + CCCCCCCCCCCC[N+](C)(C)C.[Br-] + O
298.15 K, 101 kPa
Details | electrical conductivity [S/m]
x2 = 0, x1 = 0.0001802 | 0.1161
x2 = 0, x1 = 0.001799 | 0.8806

NCC(=O)O + CCCCCCCCCCCC[N+](C)(C)Cc1ccccc1.[Cl-] + O
electrical conductivity [S/m], 101 kPa
Details | 293.15 K | 298.15 K | 303.15 K | 308.15 K | 313.15 K
x1 = 0.0008876, x2 = 0 | 0.000384 | 0.000431 | 0.000492 | 0.000549 | 0.000613
x1 = 0.001759, x2 = 0 | 0.00074 | 0.000839 | 0.000945 | 0.00106 | 0.00118

CCCC[n+]1ccn(C)c1.N#C[S-] + CCCCCCO
101 kPa
Details | viscosity [mPa·s]
298.15 K, x2 = 0.1505 | 36.2
308.15 K, x2 = 0.1505 | 24.6
308.15 K, x2 = 0.453 | 13.1
308.15 K, x2 = 0.9102 | 4.42
318.15 K, x2 = 0.6307 | 6.91
318.15 K, x2 = 0.9102 | 3.41
328.15 K, x2 = 0.6962 | 4.59
328.15 K, x2 = 0.7583 | 3.92
328.15 K, x2 = 0.8512 | 3.17
338.15 K, x2 = 0.0424 | 12
338.15 K, x2 = 0.3093 | 8.15
338.15 K, x2 = 0.453 | 6.07
338.15 K, x2 = 0.5773 | 4.76
348.15 K, x2 = 0.0424 | 9.56

CCCN + CCCCCC[n+]1ccn(C)c1.F[B-](F)(F)F
298.15 K, 101 kPa
Details | viscosity [mPa·s]
x1 = 0.1525 | 110
x1 = 0.5052 | 29.08
x1 = 0.9012 | 1.672

CCCC[n+]1ccn(C)c1.N#C[S-] + CCCCCO
101 kPa
Details | viscosity [mPa·s]
308.15 K, x2 = 0.0193 | 31.1
308.15 K, x2 = 0.1443 | 23.4
318.15 K, x2 = 0.5557 | 7.31
328.15 K, x2 = 0.7302 | 3.71
338.15 K, x2 = 0 | 12.7
338.15 K, x2 = 0.3843 | 6.75
338.15 K, x2 = 0.616 | 4.13
348.15 K, x2 = 0.2751 | 6.6
348.15 K, x2 = 0.3843 | 5.49
348.15 K, x2 = 0.7914 | 2.17
348.15 K, x2 = 0.9135 | 1.5

CCCC[n+]1ccn(C)c1.N#C[S-] + CCCCO
101 kPa
Details | viscosity [mPa·s]
298.15 K, x2 = 0.5596 | 11.2
298.15 K, x2 = 0.6222 | 9.23
298.15 K, x2 = 0.79 | 5.28
298.15 K, x2 = 0.9738 | 2.9
308.15 K, x2 = 0.6834 | 5.8
318.15 K, x2 = 0.0911 | 19
318.15 K, x2 = 0.5596 | 6.55
318.15 K, x2 = 0.6222 | 5.5
318.15 K, x2 = 0.6834 | 4.59
318.15 K, x2 = 0.9738 | 1.81
328.15 K, x2 = 0.4552 | 6.86
328.15 K, x2 = 0.6834 | 3.72
338.15 K, x2 = 0.5596 | 4.19
338.15 K, x2 = 0.6222 | 3.6
348.15 K, x2 = 0.3317 | 5.78
348.15 K, x2 = 0.8975 | 1.34
348.15 K, x2 = 0.9738 | 1

O=S(=O)([N-]S(=O)(=O)C(F)(F)F)C(F)(F)F.O=S(=O)([N-]S(=O)(=O)C(F)(F)F)C(F)(F)F.[Zn+2] + CCCC[N+]1(C)CCCC1.O=S(=O)([N-]S(=O)(=O)C(F)(F)F)C(F)(F)F
100 kPa, x1 = 0.24
Details | electrical conductivity [S/m]
356.5 K | 0.306
409.4 K | 1.24

O=S1(=O)CCCC1 + CCCC[N+]1(C)CCCC1.O=S(=O)([N-]S(=O)(=O)C(F)(F)F)C(F)(F)F
101.33 kPa, x2 = 0.5
Details | viscosity [mPa·s]
303.15 K | 25.8
313.15 K | 18.6
323.15 K | 12.9
333.15 K | 9.7
343.15 K | 8
353.25 K | 6.7
